Calls of active or inactive are those of the source.
Experiments:
[1] = molecular target: T1, Corticotropin-releasing factor receptor 2/Corticotropin-releasing factor-binding protein (Homo sapiens, UniProt P24387+Q13324); assay: Dose Response confirmation of uHTS hits for small molecule antagonists of the CRF-binding protein and CRF-R2 receptor complex.; assay type: functional; settings: read-out: IC50_Mean
T1 sequence (Q13324 whole entry): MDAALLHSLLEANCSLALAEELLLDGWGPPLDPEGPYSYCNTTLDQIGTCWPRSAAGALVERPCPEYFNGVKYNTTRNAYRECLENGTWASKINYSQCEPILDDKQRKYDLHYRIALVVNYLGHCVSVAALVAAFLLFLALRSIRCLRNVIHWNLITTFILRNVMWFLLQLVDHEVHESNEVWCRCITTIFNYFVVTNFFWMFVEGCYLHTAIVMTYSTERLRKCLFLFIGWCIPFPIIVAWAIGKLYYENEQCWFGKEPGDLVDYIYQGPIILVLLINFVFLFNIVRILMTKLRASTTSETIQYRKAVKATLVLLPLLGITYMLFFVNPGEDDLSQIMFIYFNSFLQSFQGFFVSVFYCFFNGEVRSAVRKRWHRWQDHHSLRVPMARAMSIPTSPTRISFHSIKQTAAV
T1 sequence (P24387 whole entry): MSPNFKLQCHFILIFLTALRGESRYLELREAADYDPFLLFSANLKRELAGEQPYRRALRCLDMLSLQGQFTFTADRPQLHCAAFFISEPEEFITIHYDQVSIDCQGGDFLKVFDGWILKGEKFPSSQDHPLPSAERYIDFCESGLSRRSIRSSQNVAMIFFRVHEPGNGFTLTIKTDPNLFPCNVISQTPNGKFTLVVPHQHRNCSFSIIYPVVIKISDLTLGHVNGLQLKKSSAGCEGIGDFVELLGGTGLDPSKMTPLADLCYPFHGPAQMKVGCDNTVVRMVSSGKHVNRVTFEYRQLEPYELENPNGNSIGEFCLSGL

[2] = molecular target: T1, Corticotropin-releasing factor receptor 2/Corticotropin-releasing factor-binding protein; assay: activators of CRF receptor 2 with binding protein – uHTS hits, confirmation (AID 602473); assay type: functional; settings: read-out: EC50_Mean
INS1 = assay: INS-1E survival protection against cytokine death – cell-based, luminescence, retest, dose response (AID 449756); assay type: functional; settings: Rattus norvegicus;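 note: cell death triggered by IL-1 beta plus TNF-alpha plus IFN-gamma mixture; protective hits raise ATP signal compared with cytokine alone wells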
[3] = loss of viability in HepG2 cells – cell-based, CellTiter-Glo, cherry-picked, cytotoxicity control for Shn3 inhibitor project, dose response (AID 624134); assay type: functional
[4] = non-specific 3'UTR reporter inhibition in Clone20-Shn3RL – cell-based, Renilla luciferase, cherry-picked, counter-screen for Shn3 inhibitor project, dose response (AID 624133); assay type: functional
[5] = reduction of Shn3 3'UTR-driven luciferase in osteoblasts – cell-based, Clone20 osteoblasts, firefly luciferase, cherry-picked, dose response (AID 624132); assay type: functional;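 note: firefly luciferase luminescence from reporter carrying the Shn3 3'UTR in osteoblasts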
[6] = test system: Streptococcus sp. 'group A'; assay: Streptococcus pyogenes SK(-)GAS viability under kanamycin – luminescence, BacTiterGlo, confirmation, counter-screen for streptokinase expression inhibitor project, dose response (AID 1900); assay type: functional, organism-based
Streptokinase A = molecular target: T2, Streptokinase A (Streptococcus pyogenes serotype M1, UniProt P10520); assay: viability-normalized secreted streptokinase activity reduction – plasminogen activation absorbance, OD405, dose response (AID 1914); assay type: functional, Streptococcus pyogenes M1 GAS;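 note: secreted streptokinase activity via plasminogen activation per viability signal from cell pellet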
T2 sequence (P10520 whole entry): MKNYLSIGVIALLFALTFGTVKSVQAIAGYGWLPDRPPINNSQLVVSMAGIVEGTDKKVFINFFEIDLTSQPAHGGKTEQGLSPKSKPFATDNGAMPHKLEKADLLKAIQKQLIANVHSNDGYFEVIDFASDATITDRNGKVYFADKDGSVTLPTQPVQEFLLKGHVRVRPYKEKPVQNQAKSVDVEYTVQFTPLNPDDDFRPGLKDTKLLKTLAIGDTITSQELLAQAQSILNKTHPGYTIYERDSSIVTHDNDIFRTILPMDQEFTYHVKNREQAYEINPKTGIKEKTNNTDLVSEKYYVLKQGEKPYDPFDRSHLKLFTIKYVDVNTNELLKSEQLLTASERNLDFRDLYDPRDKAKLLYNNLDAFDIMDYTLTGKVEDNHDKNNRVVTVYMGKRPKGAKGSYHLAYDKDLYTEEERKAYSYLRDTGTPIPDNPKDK

Streptococcus = assay: GAS UMAA2166 growth inhibition – luminescence, BacTiterGlo, counter-screen for streptokinase expression inhibitor project, dose response (AID 1915); assay type: functional, organism-based;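 note: potency for reduction of bacterial viability or growth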
[7] = molecular target: T3, Calpain-2 catalytic subunit (Sus scrofa, UniProt P43367); assay: m-calpain protease blockers, concentration series – biochemical, fluorogenic peptide substrate, dose response (AID 1420); assay type: functional
T3 sequence (P43367 whole entry): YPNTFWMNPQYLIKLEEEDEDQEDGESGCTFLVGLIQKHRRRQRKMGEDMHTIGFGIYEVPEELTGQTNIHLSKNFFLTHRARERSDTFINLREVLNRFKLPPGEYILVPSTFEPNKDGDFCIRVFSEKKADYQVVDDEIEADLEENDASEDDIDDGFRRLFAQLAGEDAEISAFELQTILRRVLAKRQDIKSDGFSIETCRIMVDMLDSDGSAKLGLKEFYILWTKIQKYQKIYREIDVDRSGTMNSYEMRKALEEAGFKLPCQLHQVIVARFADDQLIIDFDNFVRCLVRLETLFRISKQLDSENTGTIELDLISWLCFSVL

Vero = assay: cells; assay type: functional; settings: Chlorocebus sabaeus
Protein RecA = molecular target: T4, Protein RecA (Mycobacterium tuberculosis, UniProt P9WHJ3); assay: Fluorescence Cell-Free Homogeneous Dose Retest to Identify Inhibitors of RecA-Intein Splicing Activity. [Related pubchem assays (depositor defined):AID2097, AID2223, AID489010, AID492950]; assay type: functional
T4 sequence (P9WHJ3 whole entry): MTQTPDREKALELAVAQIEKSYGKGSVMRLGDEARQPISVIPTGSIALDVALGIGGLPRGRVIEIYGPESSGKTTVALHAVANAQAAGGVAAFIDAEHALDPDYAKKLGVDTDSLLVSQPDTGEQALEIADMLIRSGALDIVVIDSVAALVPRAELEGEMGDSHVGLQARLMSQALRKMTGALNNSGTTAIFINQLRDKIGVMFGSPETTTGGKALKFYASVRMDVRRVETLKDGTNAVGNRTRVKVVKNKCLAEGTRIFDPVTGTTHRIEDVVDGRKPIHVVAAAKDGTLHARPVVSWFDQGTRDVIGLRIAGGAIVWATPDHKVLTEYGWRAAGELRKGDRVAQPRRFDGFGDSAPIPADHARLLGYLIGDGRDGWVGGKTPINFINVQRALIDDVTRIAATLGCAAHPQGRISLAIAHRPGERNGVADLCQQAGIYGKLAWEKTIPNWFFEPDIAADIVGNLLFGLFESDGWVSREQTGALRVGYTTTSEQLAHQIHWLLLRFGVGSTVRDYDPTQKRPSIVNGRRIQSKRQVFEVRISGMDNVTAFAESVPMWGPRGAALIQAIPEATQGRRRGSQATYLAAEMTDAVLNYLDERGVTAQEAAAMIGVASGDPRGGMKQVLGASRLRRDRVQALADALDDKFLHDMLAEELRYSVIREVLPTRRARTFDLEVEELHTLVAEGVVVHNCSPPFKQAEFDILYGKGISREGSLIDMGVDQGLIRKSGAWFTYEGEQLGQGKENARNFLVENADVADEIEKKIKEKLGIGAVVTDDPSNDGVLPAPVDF

[8] = molecular target: T5, Replicative DNA helicase DnaB (Mycobacterium tuberculosis, UniProt P9WMR3); assay: DnaB intein splicing inhibitors, dose response, biochemical, cell-free fluorescence (AID 449749); assay type: functional
T5 sequence (P9WMR3 whole entry): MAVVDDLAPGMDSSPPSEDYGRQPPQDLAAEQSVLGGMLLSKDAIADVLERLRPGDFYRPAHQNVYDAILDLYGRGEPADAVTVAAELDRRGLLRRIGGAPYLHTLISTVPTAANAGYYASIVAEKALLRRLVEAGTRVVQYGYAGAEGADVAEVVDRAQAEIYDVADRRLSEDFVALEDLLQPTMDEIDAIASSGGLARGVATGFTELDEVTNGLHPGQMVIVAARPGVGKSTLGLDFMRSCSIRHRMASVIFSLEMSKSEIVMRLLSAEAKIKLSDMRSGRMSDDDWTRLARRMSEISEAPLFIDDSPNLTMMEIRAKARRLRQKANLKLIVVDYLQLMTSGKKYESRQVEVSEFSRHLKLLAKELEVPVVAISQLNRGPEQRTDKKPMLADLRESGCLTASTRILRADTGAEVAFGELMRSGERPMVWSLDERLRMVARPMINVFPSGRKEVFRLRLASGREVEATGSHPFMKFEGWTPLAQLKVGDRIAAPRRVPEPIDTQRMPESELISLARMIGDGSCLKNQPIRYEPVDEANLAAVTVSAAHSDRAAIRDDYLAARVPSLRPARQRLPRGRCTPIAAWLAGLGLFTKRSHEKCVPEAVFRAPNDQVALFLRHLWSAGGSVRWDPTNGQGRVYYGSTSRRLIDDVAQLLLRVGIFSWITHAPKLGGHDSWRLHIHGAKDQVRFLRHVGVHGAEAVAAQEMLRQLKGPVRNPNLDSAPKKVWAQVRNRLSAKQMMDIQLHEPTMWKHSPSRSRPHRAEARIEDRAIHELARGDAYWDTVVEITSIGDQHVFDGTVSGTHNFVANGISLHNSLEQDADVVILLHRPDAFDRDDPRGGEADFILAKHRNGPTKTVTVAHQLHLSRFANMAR

[9] = molecular target: T6, Heat shock factor protein 1 (Mus musculus, UniProt P38532); assay: decrease of HSF1-responsive luciferase luminescence – cell-based, NIH3T3, dose retest, confirmation (AID 2382); assay type: functional;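 note: NIH3T3 fibroblasts with HSF1-driven luciferase reporter stressed by proteasome inhibitor MG132; luminescence from HSF1-driven luciferase expression after 8 hours of MG132 stress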
T6 sequence (P38532 whole entry): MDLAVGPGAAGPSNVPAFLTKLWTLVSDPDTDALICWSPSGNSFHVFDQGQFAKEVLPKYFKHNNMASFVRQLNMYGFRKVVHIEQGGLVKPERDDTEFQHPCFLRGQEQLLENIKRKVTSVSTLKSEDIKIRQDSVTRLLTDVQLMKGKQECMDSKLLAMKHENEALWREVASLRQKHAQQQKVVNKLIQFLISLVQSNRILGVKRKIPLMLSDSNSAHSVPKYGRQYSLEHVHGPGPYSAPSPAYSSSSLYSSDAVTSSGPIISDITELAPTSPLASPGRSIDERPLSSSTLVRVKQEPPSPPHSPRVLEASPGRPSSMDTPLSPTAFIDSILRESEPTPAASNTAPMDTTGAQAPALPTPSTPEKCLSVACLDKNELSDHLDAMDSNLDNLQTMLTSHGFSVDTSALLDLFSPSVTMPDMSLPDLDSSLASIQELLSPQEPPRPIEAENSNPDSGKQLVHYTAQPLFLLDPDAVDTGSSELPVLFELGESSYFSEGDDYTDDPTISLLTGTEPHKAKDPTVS

CC(=O)Nc1ccc(S(=O)(=O)N2CCN(c3nnnn3-c3ccccc3)CC2)cc1
IC50 [1]: > 47.1 µM (inactive)
EC50 [2]: > 53 µM (inactive)

Cc1ccccc1N=C(S)Nc1cccc2cnccc12
AC50 (INS1): > 260 µM (inactive)

CC1CCCC(C)N1C(=O)COC(=O)COc1ccc(C#N)cc1 (stereo unspecified)
IC50 [1]: > 47.1 µM (inactive)
EC50 [2]: > 53 µM (inactive)

CC1C(=O)N(Cc2cn(CCC3OCCCO3)nn2)CCS(=O)(=O)N1Cc1ccc(-c2ccc(Cl)c(Cl)c2)cc1 (stereo unspecified)
AC50 [3]: > 70 µM (inactive)
AC50 [4]: 2.7 µM (active)
AC50 [5]: 3.39 µM (active)

COc1cccc(NC(S)=NN=C2CCCCCC2)c1
EC50 [6]: 17.5 µM (active)
EC50 (Streptokinase A): > 150 µM (not active)
EC50 (Streptococcus): > 150 µM (not active)
IC50 [7]: > 50 µM (not active)

C/C(=N\NC(N)=S)c1ccncc1
AC50 (INS1): > 260 µM (inactive)

O=C(CCl)N1N=C(c2ccco2)CC1c1ccco1 (stereo unspecified)
CC50 (Vero): 9.82 µM (active)
EC50 (Protein RecA): 9.97 µM (active)
AC50 [8]: > 380 µM (inactive)

Cc1c(N2C(=O)C3C4C=CC(C5CC45)C3C2=O)c(=O)n(-c2ccccc2)n1C (stereo unspecified)
IC50 [1]: > 47.1 µM (inactive)
EC50 [2]: > 53 µM (inactive)

Cc1cccc2c(C(=O)N3CCN(c4ccccn4)CC3)cc(-c3cccc(Br)c3)nc12
AC50 (INS1): 3.73 µM (active)
AC50 [3]: 45.4 µM (active)
EC50 [9]: > 195 µM (not active)
AC50 [5]: 6.48 µM (active)

O=C(OCCN1C(=O)c2ccccc2C1=O)c1ccc(S(=O)(=O)N2CCCCCC2)cc1
IC50 [7]: > 50 µM (not active)

Cc1ccc(CN(C)C(=O)CCc2c[nH]c3ccccc23)o1
IC50 [1]: > 47.1 µM (inactive)
EC50 [2]: > 53 µM (inactive)

CC(C)CCNC(=O)C12CN(Cc3ccccc3)CC1C(c1ccc([N+](=O)[O-])cc1)=NO2 (stereo unspecified)
IC50 [7]: 7.38 µM (not active)

Reference: ChEMBL document CHEMBL1201862, “PubChem BioAssay data set” (2004)
